inhibition, IC50 and Ratio IC50 data for one compound are collected here from ChEMBL document CHEMBL5046289, “Targeting the S2 Subsite Enables the Structure-Based Discovery of Novel Highly Selective Factor XIa Inhibitors” (J Med Chem, 2022).

Calls of active or inactive are those of the source. No cut-off for these calls is given here.

Test [1] concerns the target T1, Prothrombin (Homo sapiens, UniProt P00734). Nature of the test: Inhibition of thrombin (unknown origin) assessed as chromogenic substrate using CS-10(38) as substrate at 1 mM incubated for 1 hr by spectrophotometer based microplate reader method.
For test [2], the target named is T2, Coagulation factor XI (Homo sapiens, UniProt P03951). Kind of test: Inhibition of coagulation factor XIa (unknown origin) assessed as chromogenic substrate hydrolysis using CS-21(66) as substrate incubated for 1 hr by spectrophotometer based microplate reader method.
The next test addresses Plasma kallikrein (Homo sapiens, UniProt P03952). Kind of test: Inhibition of plasma kallikrein (unknown origin) assessed as chromogenic substrate hydrolysis using CS-31(02) as substrate incubated for 1 hr by spectrophotometer based microplate reader method.
Test [3] is filed under the species Homo sapiens. Nature of the test: Selectivity index, ratio of IC50 for plasma kallikrein (unknown origin) to IC50 for coagulation factor XIa (unknown origin).
The next test concerns the target Coagulation factor X (Homo sapiens, UniProt P00742). Kind of test: Inhibition of coagulation factor Xa (unknown origin) assessed as chromogenic substrate using CS-11(22) as substrate incubated for 1 hr by spectrophotometer based microplate reader method.
In test [4] the target is T3, Coagulation factor XII (Homo sapiens) (UniProt P00748).
T3 sequence (whole entry): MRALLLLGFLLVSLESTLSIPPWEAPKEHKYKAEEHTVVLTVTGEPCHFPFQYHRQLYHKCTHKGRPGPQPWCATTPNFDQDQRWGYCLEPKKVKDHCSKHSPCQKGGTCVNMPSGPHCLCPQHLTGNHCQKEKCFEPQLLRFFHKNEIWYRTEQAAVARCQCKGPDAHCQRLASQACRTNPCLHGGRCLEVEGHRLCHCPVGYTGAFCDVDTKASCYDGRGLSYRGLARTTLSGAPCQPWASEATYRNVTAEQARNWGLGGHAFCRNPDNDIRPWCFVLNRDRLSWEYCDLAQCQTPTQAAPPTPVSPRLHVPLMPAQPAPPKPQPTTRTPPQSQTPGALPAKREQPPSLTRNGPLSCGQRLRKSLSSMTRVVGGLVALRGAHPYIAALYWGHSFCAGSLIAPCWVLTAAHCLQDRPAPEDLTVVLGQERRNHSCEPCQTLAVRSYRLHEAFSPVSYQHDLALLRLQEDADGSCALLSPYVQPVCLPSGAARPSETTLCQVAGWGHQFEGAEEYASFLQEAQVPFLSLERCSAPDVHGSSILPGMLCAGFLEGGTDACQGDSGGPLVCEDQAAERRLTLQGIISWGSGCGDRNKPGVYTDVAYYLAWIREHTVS
Nature of the test: Inhibition of coagulation factor XIIa (unknown origin) assessed as chromogenic substrate using TH5253 as substrate at 1 mM incubated for 1 hr by spectrophotometer based microplate reader method.

Test [5] deals with Coagulation factor IX (Homo sapiens) (UniProt P00740). Kind of test: Inhibition of coagulation factor IXa (unknown origin) assessed as chromogenic substrate using ADG299 as substrate at 1 mM incubated for 1 hr by spectrophotometer based microplate reader method.
The target of test [6] is T4, Coagulation factor VII (Homo sapiens) (UniProt P08709).
T4 sequence (whole entry): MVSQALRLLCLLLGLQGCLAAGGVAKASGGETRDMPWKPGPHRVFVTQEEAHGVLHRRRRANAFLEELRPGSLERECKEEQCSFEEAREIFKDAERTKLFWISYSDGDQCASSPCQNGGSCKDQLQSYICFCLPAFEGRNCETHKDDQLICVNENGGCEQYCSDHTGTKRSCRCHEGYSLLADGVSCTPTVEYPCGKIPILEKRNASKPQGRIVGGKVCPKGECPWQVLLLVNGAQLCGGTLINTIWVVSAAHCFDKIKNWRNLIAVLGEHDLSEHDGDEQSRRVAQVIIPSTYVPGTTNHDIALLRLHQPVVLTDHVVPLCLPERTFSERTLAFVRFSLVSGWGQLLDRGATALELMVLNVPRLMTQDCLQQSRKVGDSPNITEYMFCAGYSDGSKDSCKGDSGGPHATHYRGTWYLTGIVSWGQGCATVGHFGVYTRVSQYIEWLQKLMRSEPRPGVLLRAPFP
Nature of the test: Inhibition of coagulation factor VIIa (unknown origin) assessed as chromogenic substrate using chromozyme t-PA as substrate at 1 mM incubated for 1 hr by spectrophotometer based microplate reader method.

Test [7] deals with Serine protease 1 (Homo sapiens) (UniProt P07477). Kind of test: Inhibition of trypsin (unknown origin) assessed as chromogenic substrate using CS-11(22) as substrate at 1 mM incubated for 1 hr by spectrophotometer based microplate reader method.
Test [8] addresses T1, Prothrombin. Kind of test: Inhibition of thrombin (unknown origin) assessed as chromogenic substrate using CS-10(38) as substrate incubated for 1 hr by spectrophotometer based microplate reader method.
The species entered for test [9] is Homo sapiens. Nature of the test: Selectivity index, ratio of IC50 for coagulation factor Xa (unknown origin) to IC50 for coagulation factor XIa (unknown origin).
The species entered for test [10] is Homo sapiens. Kind of test: Selectivity index, ratio of IC50 for coagulation factor XIIa (unknown origin) to IC50 for coagulation factor XIa (unknown origin).
For test [11], the species on record is Homo sapiens. Kind of test: Selectivity index, ratio of IC50 for coagulation factor IXa (unknown origin) to IC50 for coagulation factor XIa (unknown origin).
Test [12] is filed under the species Homo sapiens. Nature of the test: Selectivity index, ratio of IC50 for coagulation factor VIIa (unknown origin) to IC50 for coagulation factor XIa (unknown origin).
For test [13], the species on record is Homo sapiens. Kind of test: Selectivity index, ratio of IC50 for trypsin (unknown origin) to IC50 for coagulation factor XIa (unknown origin).
The species named for test [14] is Homo sapiens. Kind of test: Selectivity index, ratio of IC50 for thrombin (unknown origin) to IC50 for coagulation factor XIa (unknown origin).
Test [15] concerns the target T2, Coagulation factor XI. As to conditions: dose 50.0 nM, time 1.0 hrs.

T2 sequence (P03951 19-387 limits assumed): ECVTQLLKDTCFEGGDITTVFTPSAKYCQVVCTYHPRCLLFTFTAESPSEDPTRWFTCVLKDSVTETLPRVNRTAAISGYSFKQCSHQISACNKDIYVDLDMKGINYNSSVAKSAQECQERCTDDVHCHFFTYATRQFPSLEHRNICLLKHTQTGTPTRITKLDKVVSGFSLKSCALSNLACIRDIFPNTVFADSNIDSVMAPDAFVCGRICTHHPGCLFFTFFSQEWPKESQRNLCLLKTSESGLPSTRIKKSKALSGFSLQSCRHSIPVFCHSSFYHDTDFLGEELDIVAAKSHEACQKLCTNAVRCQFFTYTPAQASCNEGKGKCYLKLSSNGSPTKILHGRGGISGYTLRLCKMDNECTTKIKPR
T2 sequence (P03951 388-625 limits assumed): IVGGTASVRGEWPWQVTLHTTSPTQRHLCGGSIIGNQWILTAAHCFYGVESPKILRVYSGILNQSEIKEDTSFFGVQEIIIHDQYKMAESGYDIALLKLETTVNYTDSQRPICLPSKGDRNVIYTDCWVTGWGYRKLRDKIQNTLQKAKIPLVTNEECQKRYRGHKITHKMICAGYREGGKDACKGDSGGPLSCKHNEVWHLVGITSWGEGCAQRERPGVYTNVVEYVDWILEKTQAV
Coagulation factor X, sequence (P00742 41-179 limits assumed): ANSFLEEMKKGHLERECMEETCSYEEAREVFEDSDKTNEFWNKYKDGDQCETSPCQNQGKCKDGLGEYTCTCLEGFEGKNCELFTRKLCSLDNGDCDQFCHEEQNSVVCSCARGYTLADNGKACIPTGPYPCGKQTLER
Coagulation factor X, sequence (P00742 235-488 limits assumed): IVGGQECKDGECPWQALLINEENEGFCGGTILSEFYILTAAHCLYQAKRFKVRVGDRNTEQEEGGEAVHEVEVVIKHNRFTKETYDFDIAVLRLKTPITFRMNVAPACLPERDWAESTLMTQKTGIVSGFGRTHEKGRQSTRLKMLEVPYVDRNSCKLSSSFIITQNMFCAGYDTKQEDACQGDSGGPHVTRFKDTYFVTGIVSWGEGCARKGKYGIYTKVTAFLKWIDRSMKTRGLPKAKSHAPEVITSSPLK
Serine protease 1 (Homo sapiens), sequence (P07477 whole entry): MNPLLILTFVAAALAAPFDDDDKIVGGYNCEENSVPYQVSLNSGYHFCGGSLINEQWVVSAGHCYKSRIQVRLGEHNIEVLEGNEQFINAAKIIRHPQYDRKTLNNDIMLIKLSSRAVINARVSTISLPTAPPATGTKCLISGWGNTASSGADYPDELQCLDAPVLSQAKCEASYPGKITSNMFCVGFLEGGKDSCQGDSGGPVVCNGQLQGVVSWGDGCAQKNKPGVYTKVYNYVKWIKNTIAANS
Plasma kallikrein, sequence (P03952 20-390 limits assumed): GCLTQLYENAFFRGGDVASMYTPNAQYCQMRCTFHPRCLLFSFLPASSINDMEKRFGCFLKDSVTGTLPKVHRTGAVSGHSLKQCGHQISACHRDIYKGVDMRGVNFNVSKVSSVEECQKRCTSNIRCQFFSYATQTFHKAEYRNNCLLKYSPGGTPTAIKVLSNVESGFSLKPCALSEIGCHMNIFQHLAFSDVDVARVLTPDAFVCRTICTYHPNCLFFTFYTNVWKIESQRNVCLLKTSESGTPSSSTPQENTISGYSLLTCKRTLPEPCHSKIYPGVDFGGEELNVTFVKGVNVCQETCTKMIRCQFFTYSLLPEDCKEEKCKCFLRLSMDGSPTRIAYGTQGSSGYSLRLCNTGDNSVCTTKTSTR
Plasma kallikrein, sequence (P03952 391-638 limits assumed): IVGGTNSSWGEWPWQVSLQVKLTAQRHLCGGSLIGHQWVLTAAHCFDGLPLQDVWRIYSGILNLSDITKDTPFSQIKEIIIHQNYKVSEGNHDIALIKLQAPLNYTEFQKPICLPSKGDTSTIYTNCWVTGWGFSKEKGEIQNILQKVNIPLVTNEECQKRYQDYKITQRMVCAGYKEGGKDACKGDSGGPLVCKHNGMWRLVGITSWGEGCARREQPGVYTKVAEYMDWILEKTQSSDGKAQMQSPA
Coagulation factor IX (Homo sapiens), sequence (P00740 47-191 limits assumed): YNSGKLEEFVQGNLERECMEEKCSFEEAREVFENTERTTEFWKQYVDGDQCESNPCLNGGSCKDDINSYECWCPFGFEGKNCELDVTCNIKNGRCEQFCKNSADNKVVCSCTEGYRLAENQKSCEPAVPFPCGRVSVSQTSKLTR
Coagulation factor IX (Homo sapiens), sequence (P00740 227-461 limits assumed): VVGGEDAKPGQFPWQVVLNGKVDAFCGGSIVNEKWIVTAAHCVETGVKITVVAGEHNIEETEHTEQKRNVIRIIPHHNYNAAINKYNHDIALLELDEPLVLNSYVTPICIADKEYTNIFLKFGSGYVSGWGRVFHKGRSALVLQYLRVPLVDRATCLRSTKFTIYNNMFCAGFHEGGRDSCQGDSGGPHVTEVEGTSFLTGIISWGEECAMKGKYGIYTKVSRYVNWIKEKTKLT

What is called inhibition is the drop in the measured response relative to a control, in per cent. As a reminder, the IC50 is the concentration that inhibits the measured activity by half. Consider `O=C(/C=C/c1cc(Cl)ccc1-n1cnnn1)N[C@@H](CC(=O)N1CCSCC1)C(=O)Nc1ccc(C(=O)O)cc1`, for which the inhibition result (at Prothrombin [1]; in test [4]; in [5]; in [6]; in test [7]; on Prothrombin [8]) was “inactive” each time. The half-inhibitory concentration (IC50) was 0.0185 µM on Coagulation factor XI [2], 14 µM on Plasma kallikrein and 980 µM on Coagulation factor X. The Ratio IC50 was 756 in the test filed under Homo sapiens [3]; above 5000 in the test filed under Homo sapiens [9]; above 5000 in the test filed under Homo sapiens [10]; above 5000 in the test listed under Homo sapiens [11]; above 5000 in the test filed under Homo sapiens [12]; above 5000 in the test filed under Homo sapiens [13]. For the same compound, the Ratio IC50 in the test listed under Homo sapiens [14] is above 5000. This compound registered an inhibition at Coagulation factor XI [15] of 52.3%.
